Target: T1, CFTR (Homo sapiens, UniProt P13569, DEL508-508)
T1 construct: Primary CF airway epithelial cells were obtained from the UNC Cystic Fibrosis Tissue Procurement and Cell Culture Core; host or cells: primary CF airway epithelial cells
Assay: Equivalent current assay in Primary CF airway epithelial cells (NAUC)
Assay type: cell-based
Conditions: 24 h, normalized to VX809 (3 μM) positive control; for Nauc @ 3 μM: 3 μM test compound; for Nauc @ 10 μM: 10 μM test compound
Protocol: Primary CF airway epithelial cells were obtained from the UNC Cystic Fibrosis Tissue Procurement and Cell Culture Core. The cells are grown at 37° C. in a Heracell 150i incubator using growth media (BEGM, Fischer). Cells were then transferred to differentiation media (ALI, UNC) for a minimum of 4 weeks on coated Costar snapwells. Two days before the Ussing assay the mucus on the apical surface of the cells was aspirated after incubating with 200 μL of differentiation Media for at least thirty (30) minutes. One day before the Ussing assay test compounds were added to the basolateral surface of the cells at various test concentrations dissolved in DMSO. Duplicate wells were prepared giving a n=3 or n=4 protocol.
Cells were treated for 24 hours with various combinations and concentrations of the test articles, reference standard (3 μM VX809, positive control). Compounds stock solutions were prepared in DMSO and diluted 1/1000 into ALI media to their final assay concentration. Cells were treated with combination solutions (2 mL of each dilution) and incubated at 37° C. for 24 h.
For the equivalent current assay, cells on four Transwell (24-well) plates were treated. Each Transwell plate was filled with 200 μl of HBS on the apical surface and 2 ml on the basolateral surface. Plates were placed horizontally in a heated mount at 37° C., and equilibrated for several minutes. Resting current was measured for 15 min and then blocked by the apical addition of 5 μM benzamil. After 20 min, 10 μM forskolin and 1 μM VX770 were added to both the apical and basolateral side to stimulate CFTR. An increase in chloride current is seen as an upward deflection of the trace. After another 30 min, CFTR-172 (a CFTR inhibitor, 20 μM) and/or bumetanide (20 uM) was added to block CFTR mediated chloride current.
The raw data, current vs. time for the Ussing chamber (sampling interval: 10 s) and voltage vs. time and resistance vs. time for the equivalent current assay (sampling interval: 5 minutes) were transferred to Excel (Microsoft Office Professional, version 14.0.7106.5003) for analysis. CFTR specific current was measured as the average amplitude of the increase in current elicited upon addition forskolin and ending upon addition of the CFTR channel specific blocker CFTR-172. This average is equivalent to the sum of the average forskolin activated and the average VX770-potentiated currents. The average current measured in vehicle (0.1% DMSO) treated cells, Iv, was subtracted from the current for the test article, ITA, or from the corrector reference standard VX809 (3 uM ISTD. For replicate measurements, the average vehicle subtracted response for the test article, was normalized to the average vehicle subtracted inhibitor response of the reference corrector VX809 (3 μM). INSC=(ITA−IV)(ave)/(ISTD−IV)(ave) (Equation 1)
A second endpoint, for the equivalent current assay, evaluated was NAUC, the normalized area under the curve (AUC) measuring the response after addition of forskolin and VX770 to the time point right before the addition of the CFTR inhibitor. The AUC is effectively the average response multiplied by the duration of the response. The AUC of the test article, AUCTA was then corrected by subtracting the average vehicle response, AUCV,ave over the same time range, and normalized as for the inhibitor-sensitive current to the difference of the corrector reference standard VX809 (3 μM VX809r,ave and the vehicle response: NAUCTA=[AUCTA−AUCV,ave]/[AUCVx809r,ave−AUCV,ave] (Equation 2).
The normalized value for DMSO is 0.0 and for VX-809 alone is 1.0. Combinations of compounds with VX-809 that give normalized values greater than 1.0 show activity in the combination assay. A value of 2 means the test compound doubles the effect to VX-809 alone.
Experiments were run with a minimum of n=4 replicates per concentration. […]

T1 sequence (P13569 with tags, fused parts or gaps DEL508-508): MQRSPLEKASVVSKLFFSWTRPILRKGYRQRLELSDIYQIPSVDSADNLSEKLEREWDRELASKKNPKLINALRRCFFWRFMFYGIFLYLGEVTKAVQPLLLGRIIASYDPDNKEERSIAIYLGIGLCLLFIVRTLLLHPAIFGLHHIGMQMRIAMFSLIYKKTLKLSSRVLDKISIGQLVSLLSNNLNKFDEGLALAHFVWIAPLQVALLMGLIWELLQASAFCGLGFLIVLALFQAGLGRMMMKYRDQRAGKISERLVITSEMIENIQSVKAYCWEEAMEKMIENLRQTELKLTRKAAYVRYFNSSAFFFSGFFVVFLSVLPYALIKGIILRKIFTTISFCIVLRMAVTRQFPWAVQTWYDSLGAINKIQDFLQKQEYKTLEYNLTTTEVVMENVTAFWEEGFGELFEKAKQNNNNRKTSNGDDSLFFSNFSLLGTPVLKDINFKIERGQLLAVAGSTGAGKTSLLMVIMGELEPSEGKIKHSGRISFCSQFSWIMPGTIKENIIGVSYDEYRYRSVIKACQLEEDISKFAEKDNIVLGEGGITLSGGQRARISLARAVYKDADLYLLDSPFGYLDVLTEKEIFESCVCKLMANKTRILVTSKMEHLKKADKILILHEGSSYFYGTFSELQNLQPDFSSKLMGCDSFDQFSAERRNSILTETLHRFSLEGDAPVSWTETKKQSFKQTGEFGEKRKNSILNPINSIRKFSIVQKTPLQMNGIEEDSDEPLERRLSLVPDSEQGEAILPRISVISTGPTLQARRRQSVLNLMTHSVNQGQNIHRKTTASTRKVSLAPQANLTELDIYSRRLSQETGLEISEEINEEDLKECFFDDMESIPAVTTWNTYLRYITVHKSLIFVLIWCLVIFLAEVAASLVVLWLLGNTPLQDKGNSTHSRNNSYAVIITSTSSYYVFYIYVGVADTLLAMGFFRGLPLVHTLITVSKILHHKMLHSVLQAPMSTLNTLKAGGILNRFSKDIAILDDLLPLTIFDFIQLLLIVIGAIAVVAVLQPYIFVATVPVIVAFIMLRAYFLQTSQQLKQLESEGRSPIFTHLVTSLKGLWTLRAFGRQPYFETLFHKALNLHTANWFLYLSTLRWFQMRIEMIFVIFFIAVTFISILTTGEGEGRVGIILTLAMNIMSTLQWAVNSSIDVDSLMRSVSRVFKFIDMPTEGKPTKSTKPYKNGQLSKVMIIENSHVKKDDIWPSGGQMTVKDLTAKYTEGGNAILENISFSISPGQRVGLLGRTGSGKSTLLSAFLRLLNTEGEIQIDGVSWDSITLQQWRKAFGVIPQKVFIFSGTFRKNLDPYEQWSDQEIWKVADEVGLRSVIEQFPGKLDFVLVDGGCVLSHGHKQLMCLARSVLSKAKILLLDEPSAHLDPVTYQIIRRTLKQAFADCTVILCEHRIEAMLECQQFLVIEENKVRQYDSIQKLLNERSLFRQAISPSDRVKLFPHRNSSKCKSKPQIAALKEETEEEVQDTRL

For O=C1C2C3CC4(CC4)CN3C3(C(=O)Nc4c(Cl)cc(Cl)cc43)C2C(=O)N1c1cc(Cl)cc(Cl)n1 (stereo not drawn) [Example 184], the “Nauc @ 3 μM” value was “+++ (NAUC “+++” refers to an observed NAUC >170% of positive control)” and the “Nauc @ 10 μM” value was “+++ (NAUC “+++” refers to an observed NAUC >170% of positive control)”.
In the case of O=C1C2C3CC4(CC4)CN3C3(C(=O)Nc4c(Cl)cc(Cl)cc43)C2C(=O)N1c1cc(Cl)cc(Cl)c1 (stereo not drawn) [Example 174], the “Nauc @ 3 μM” value is reported as “+++ (NAUC “+++” refers to an observed NAUC >170% of positive control)” and the “Nauc @ 10 μM” value is reported as “+++ (NAUC “+++” refers to an observed NAUC >170% of positive control)”.
With O=C1C2C3CC(=C(F)F)CN3C3(C(=O)Nc4c(Cl)cc(Cl)cc43)C2C(=O)N1c1cc(F)cc(Cl)c1 (stereo not drawn) [Example 124] the “Nauc @ 3 μM” value was “+ (NAUC “+” refers to an observed NAUC <140% of positive control)” and the “Nauc @ 10 μM” value was “++ (NAUC “++” refers to an observed NAUC 170-140% of positive control)”.
With COc1cc(Cl)cc(N2C(=O)C3C4C[C@H](F)CN4C4(C(=O)Nc5c(Cl)cc(Cl)cc54)C3C2=O)c1 (single isomer, unassigned) [Example 6, (7′S)-5,7-Dichloro-2′-(3-chloro-5-methoxyphenyl)-7′-fluoro-3a′,6′,7′,8′,8a′,8b′-hexahydro-1′H-spiro[indoline-3,4′-pyrrolo[3,4-a]pyrrolizine]-1′,2,3′(2′H)-trione] the “Nauc @ 3 μM” value was “+++ (NAUC “+++” refers to an observed NAUC >170% of positive control)” and the “Nauc @ 10 μM” value was “+++ (NAUC “+++” refers to an observed NAUC >170% of positive control)”.
For COc1cccc(N2C(=O)C3C4C[C@H](Cl)CN4C4(C(=O)Nc5c(Cl)cc(Cl)cc54)C3C2=O)c1 (stereo partly drawn) [Example 113], the “Nauc @ 3 μM” value was “+ (NAUC “+” refers to an observed NAUC <140% of positive control)” and the “Nauc @ 10 μM” value was “++ (NAUC “++” refers to an observed NAUC 170-140% of positive control)”.
COc1c(Cl)cc(N2C(=O)C3C4CCCN4C4(C(=O)Nc5c(Cl)cc(Cl)cc54)C3C2=O)cc1Cl (single isomer, unassigned) [Example 112] was tested, and the “Nauc @ 3 μM” value was “+++ (NAUC “+++” refers to an observed NAUC >170% of positive control)” and the “Nauc @ 10 μM” value was “+++ (NAUC “+++” refers to an observed NAUC >170% of positive control)”.
For [2H]C12C(=O)N(c3cc(Cl)cc(OC)c3)C(=O)C1([2H])C1(C(=O)Nc3c(Cl)cc(Cl)cc31)N1C[C@@H](Cl)CC12 (stereo partly drawn) [Example 146], the “Nauc @ 3 μM” value was “+++ (NAUC “+++” refers to an observed NAUC >170% of positive control)” and the “Nauc @ 10 μM” value was “+++ (NAUC “+++” refers to an observed NAUC >170% of positive control)”.
With CC1(C)CC2C3C(=O)N(c4cc(Cl)cc(Cl)c4)C(=O)C3C3(C(=O)Nc4c(Cl)cc(Cl)cc43)N2C1 (stereo not drawn) [Example 103] the “Nauc @ 3 μM” value was “++ (NAUC “++” refers to an observed NAUC 170-140% of positive control)” and the “Nauc @ 10 μM” value was “+++ (NAUC “+++” refers to an observed NAUC >170% of positive control)”.
With O=C1C2C3C[C@H](O)CN3C3(C(=O)Nc4ccc(C(F)(F)F)cc43)C2C(=O)N1c1cc(Cl)cc(Cl)c1 (single isomer, unassigned) [Example 61] the “Nauc @ 3 μM” value was “+++ (NAUC “+++” refers to an observed NAUC >170% of positive control)” and the “Nauc @ 10 μM” value was “+++ (NAUC “+++” refers to an observed NAUC >170% of positive control)”.
C=C1CC2C3C(=O)N(c4cc(Cl)cc(Cl)c4)C(=O)C3C3(C(=O)Nc4c(Cl)cc(Cl)cc43)N2C1 (stereo not drawn) [Example 55] was tested, and the “Nauc @ 3 μM” value was “+ (NAUC “+” refers to an observed NAUC <140% of positive control)” and the “Nauc @ 10 μM” value was “+++ (NAUC “+++” refers to an observed NAUC >170% of positive control)”.
COc1cc(Cl)cc(N2C(=O)C3C4C[C@](C)(O)CN4C4(C(=O)Nc5c(Cl)cc(Cl)cc54)C3C2=O)c1 (stereo partly drawn) [Example 158] was tested, and the “Nauc @ 3 μM” value was “++ (NAUC “++” refers to an observed NAUC 170-140% of positive control)” and the “Nauc @ 10 μM” value was “+++ (NAUC “+++” refers to an observed NAUC >170% of positive control)”.
With C[C@]1(OCc2ccccc2)CC2C3C(=O)N(c4cc(Cl)cc(Cl)c4)C(=O)C3C3(C(=O)Nc4c(Cl)cc(Cl)cc43)N2C1 (single isomer, unassigned) [Example 241] the “Nauc @ 3 μM” value was “+++ (NAUC “+++” refers to an observed NAUC >170% of positive control)” and the “Nauc @ 10 μM” value was “+++ (NAUC “+++” refers to an observed NAUC >170% of positive control)”.
With COc1cc(Cl)cc(N2C(=O)C3C4C[C@H](Cl)CN4C4(C(=O)Nc5c(Cl)cc(Cl)cc54)C3C2=O)c1 (single isomer, unassigned) [Example 111] the “Nauc @ 3 μM” value was “+++ (NAUC “+++” refers to an observed NAUC >170% of positive control)” and the “Nauc @ 10 μM” value was “+++ (NAUC “+++” refers to an observed NAUC >170% of positive control)”.
With O=C1C2C3C[C@H](Cl)CN3C3(C(=O)Nc4c(Cl)cc(Cl)cc43)C2C(=O)N1c1cc(Cl)cc(Cl)n1 (single isomer, unassigned) [Example 108] the “Nauc @ 3 μM” value was “+++ (NAUC “+++” refers to an observed NAUC >170% of positive control)” and the “Nauc @ 10 μM” value was “++ (NAUC “++” refers to an observed NAUC 170-140% of positive control)”.
For O=C1C2C3C[C@H](O)CN3C3(C(=O)Nc4c(Cl)cc(Cl)cc43)C2C(=O)N1c1cc(Br)cc(Br)c1 (single isomer, unassigned) [Example 56], the “Nauc @ 3 μM” value was “++ (NAUC “++” refers to an observed NAUC 170-140% of positive control)” and the “Nauc @ 10 μM” value was “+++ (NAUC “+++” refers to an observed NAUC >170% of positive control)”.
For Cc1cnc(CC2NC3(C(=O)Nc4c(Cl)cc(Cl)cc43)C3C(=O)N(c4cc(Cl)cc(Cl)c4)C(=O)C23)cn1 (stereo not drawn) [Example 252], the “Nauc @ 3 μM” value was “++ (NAUC “++” refers to an observed NAUC 170-140% of positive control)” and the “Nauc @ 10 μM” value was “++ (NAUC “++” refers to an observed NAUC 170-140% of positive control)”.
O=C1C2C(C(=O)N1c1cc(Cl)cc(Cl)c1)C(c1ccc(F)nc1)N1CCCC21 (stereo not drawn) [Example 9, 2-(3,5-Dichlorophenyl)-4-(6-fluoropyridin-3-yl)hexahydropyrrolo[3,4-a]pyrrolizine-1,3(2H,4H)-dione] was tested, and the “Nauc @ 3 μM” value was “+ (NAUC “+” refers to an observed NAUC <140% of positive control)” and the “Nauc @ 10 μM” value was “++ (NAUC “++” refers to an observed NAUC 170-140% of positive control)”.
For O=C1C2C3CC4(CC4)CN3C3(C(=O)Nc4c(Cl)cc(Cl)cc43)C2C(=O)N1c1cc(Cl)cc(Cl)n1 (single isomer, unassigned) [Example 219], the “Nauc @ 3 μM” value was “++ (NAUC “++” refers to an observed NAUC 170-140% of positive control)” and the “Nauc @ 10 μM” value was “+ (NAUC “+” refers to an observed NAUC <140% of positive control)”.
For O=C1C2C3C[C@H](Cl)CN3C3(C(=O)Nc4c(Cl)cc(Cl)cc43)C2C(=O)N1c1cc(Cl)cc(Cl)c1 (single isomer, unassigned) [Example 88], the “Nauc @ 3 μM” value was “+ (NAUC “+” refers to an observed NAUC <140% of positive control)” and the “Nauc @ 10 μM” value was “+++ (NAUC “+++” refers to an observed NAUC >170% of positive control)”.
In the case of CC1CC2C3C(=O)N(c4cc(Cl)cc(Cl)c4)C(=O)C3C3(C(=O)Nc4c(Cl)cc(Cl)cc43)N2C1 (single isomer, unassigned) [Example 72], the “Nauc @ 3 μM” value is reported as “+++ (NAUC “+++” refers to an observed NAUC >170% of positive control)” and the “Nauc @ 10 μM” value is reported as “+ (NAUC “+” refers to an observed NAUC <140% of positive control)”.
In the case of O=C1C2C3CC4(CN3C3(C(=O)Nc5c(Cl)cc(Cl)cc53)C2C(=O)N1c1cc(Cl)cc(Cl)c1)OCCO4 (stereo not drawn) [Example 169], the “Nauc @ 3 μM” value is reported as “+ (NAUC “+” refers to an observed NAUC <140% of positive control)” and the “Nauc @ 10 μM” value is reported as “++ (NAUC “++” refers to an observed NAUC 170-140% of positive control)”.
